The values that follow are results of earlier work, collected in US10155050B2, “Cross-linked star-shaped self-assembled polypeptides and its use as carriers in biomedical applications” (CENTRO DE INVESTIGACION PRINCIPE FELIPE, priority 2015, dated 2018).

For the series the following is noted: FVB mice.

As to inulin, the renal clearance value entry is “around 20 mL/h”.
